From patent EP4603105A1, “PHARMACEUTICAL COMPOSITION CONTAINING CYCLIC COMPOUND HAVING SELECTIVE KRAS INHIBITORY EFFECT AGAINST HRAS AND NRAS” (CHUGAI SEIYAKU KABUSHIKI KAISHA, priority 2022, dated 2024)

Tests used:
HRAS wild-type protein = HRAS wild-type protein (Homo sapiens, UniProt P01112); experiment: Binding to HRAS by surface plasmon resonance (SPR), KD and KD ratio to KRAS; details: ratio of KD for HRAS wild-type protein to KD for KRAS
Outline: (§1)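 Each cycle, GDP-bound biotin-Avi RAS was captured (~100–300 RU), compound concentrations were injected low to high for 75 s each at 100 µL/min, then the chip was regenerated. Buffer: HBS pH 7.4, 10 mM MgCl2, 10 µM GDP, 1 mM DTT, 4% DMSO; 30°C. KD from a 1:1 binding model.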

[1] = target: GDP-bound KRAS wild-type protein (Homo sapiens, UniProt P01116); experiment: Binding to KRAS by surface plasmon resonance (SPR), dissociation constant KD; details: 1:1 binding model
Outline: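 Running buffer contained 10 µM GDP and 10 mM MgCl2 to keep RAS in the GDP state, with 4% DMSO at pH 7.4. Compounds were flowed at 100 µL/min in 75 s steps of rising concentration over captured biotin-Avi RAS at 30°C. Sensorgrams were fitted 1:1 for KD.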

[2] = test system: human lung cancer strain NCI-H441; experiment: NCI-H441 cell proliferation inhibitory activity (CellTiter-Glo, 4 days); format: cell-based; details: NCI-H441 cells, 4 days, read-out: NCl-H441 IC50
Outline: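 Signal came from […] measured per well once the reagent was added. Beforehand, cells were cultured at 37°C and 5% carbon dioxide on a compound series serially diluted in dimethyl sulfoxide.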

[3] = target: GDP-bound NRAS wild-type protein (Homo sapiens, UniProt P01111); experiment: Binding to NRAS by surface plasmon resonance (SPR), KD and KD ratio to KRAS; details: ratio of KD for GDP-bound NRAS wild-type protein to KD for KRAS
Outline: as §1

Sequence of GDP-bound KRAS wild-type protein (P01116 1-188 isoform P01116-2): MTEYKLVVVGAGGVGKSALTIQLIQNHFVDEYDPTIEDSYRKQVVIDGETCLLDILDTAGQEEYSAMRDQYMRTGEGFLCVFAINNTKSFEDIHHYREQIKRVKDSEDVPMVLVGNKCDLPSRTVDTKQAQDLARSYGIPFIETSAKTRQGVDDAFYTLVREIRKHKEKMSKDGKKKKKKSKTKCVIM
Sequence of HRAS wild-type protein (P01112 whole entry): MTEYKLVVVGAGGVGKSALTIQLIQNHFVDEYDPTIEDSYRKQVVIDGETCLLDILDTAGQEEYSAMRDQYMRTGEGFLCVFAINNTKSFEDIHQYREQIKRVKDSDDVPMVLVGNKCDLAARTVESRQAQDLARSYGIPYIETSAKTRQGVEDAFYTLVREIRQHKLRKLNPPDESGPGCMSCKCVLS
Sequence of GDP-bound NRAS wild-type protein (P01111 whole entry): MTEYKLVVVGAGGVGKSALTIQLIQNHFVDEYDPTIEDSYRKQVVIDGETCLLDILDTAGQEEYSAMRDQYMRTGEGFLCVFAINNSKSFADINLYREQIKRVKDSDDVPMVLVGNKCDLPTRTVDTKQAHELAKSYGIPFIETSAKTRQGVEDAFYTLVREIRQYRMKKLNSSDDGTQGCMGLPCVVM

SMILES | HRAS /KRAS (HRAS wild-type protein) | Kd [1] | IC50 [2] | NRAS /KRAS [3]
CCC(CC)[C@H]1C(=O)N(C)[C@H](C(=O)N(C)C)CC(=O)N(C)[C@@H](COC)C(=O)N[C@@H]([C@@H](C)CC)C(=O)N(C)CC(=O)N(C)[C@H]2C/C=C\CCN(C2=O)[C@@H](Cc2ccc(C(F)(F)F)cc2)C(=O)N(C)CC(=O)N[C@@H](CCc2ccc(Cl)c(Cl)c2)C(=O)N2C[C@H](OC(C)C)C[C@H]2C(=O)NC2(CC(C)(C)C2)C(=O)N1C [PP2533] | A (a compound having 10 or more and less than 20 is denoted as A) | 0.49 nM | 20 nM | AA (a compound having 20 or more is denoted as AA)
CCC[C@H]1C(=O)N[C@@H](CC(C)C)C(=O)N(C2CC2)CC(=O)N(C)[C@H]2C/C=C\CCN(C2=O)[C@@H](Cc2ccc(C)cc2)C(=O)N(C)CC(=O)N[C@@H](CCc2ccc(C(F)(F)F)c(OC)c2)C(=O)N2C[C@H](OCC)C[C@H]2C(=O)NC2(CCC2)C(=O)N(C)[C@@H](C2CCCC2)C(=O)N(C)[C@H](C(=O)N(C)C)CC(=O)N1C [PP2534] | B (a compound having 3 or more and less than 10 is denoted as B) | 4.1 nM | 195 nM | A (a compound having 10 or more and less than 20 is denoted as A)
CCC[C@H]1C(=O)N[C@@H]([C@@H](C)CC)C(=O)N(C)CC(=O)N(C)[C@H]2C/C=C\CCN(C2=O)[C@@H](Cc2ccc(C(F)F)cc2)C(=O)N(C)CC(=O)N[C@@H](CCc2ccc(Cl)c(Cl)c2)C(=O)N2C[C@H](OC(C)C)C[C@H]2C(=O)NC2(CC(C)(C)C2)C(=O)N(C)[C@@H](C(CC)CC)C(=O)N(C)[C@H](C(=O)N(C)C)CC(=O)N1C [PP2535] | A (a compound having 10 or more and less than 20 is denoted as A) | 0.54 nM | 26.8 nM | AA (a compound having 20 or more is denoted as AA)
CCC[C@H]1C(=O)N[C@@H]([C@@H](C)CC)C(=O)N(C)CC(=O)N(C)[C@H]2C/C=C\CCN(C2=O)[C@@H](Cc2ccc(C)cc2)C(=O)N(C)CC(=O)N[C@@H](CCc2ccc(Cl)c(Cl)c2)C(=O)N2C[C@H](OC(C)C)C[C@H]2C(=O)NC2(CC(C)(C)C2)C(=O)N(C)[C@@H](C(CC)CC)C(=O)N(C)[C@H](C(=O)N(C)C)CC(=O)N1C [PP2537] | A (a compound having 10 or more and less than 20 is denoted as A) | 0.74 nM | 75.1 nM | AA (a compound having 20 or more is denoted as AA)
CCC[C@H]1C(=O)N[C@@H](CC(C)C)C(=O)N(CC)CC(=O)N(C)[C@H]2C/C=C\CCN(C2=O)[C@@H](Cc2ccc(C)cc2)C(=O)N(C)CC(=O)N[C@@H](CCc2cc(F)c(C(F)(F)F)c(F)c2)C(=O)N2C[C@H](OCC)C[C@H]2C(=O)NC2(CCC2)C(=O)N(C)[C@@H](C2CCCC2)C(=O)N(C)[C@H](C(=O)N(C)C)CC(=O)N1C [PP2539] | B (a compound having 3 or more and less than 10 is denoted as B) | 4.3 nM | 330 nM | A (a compound having 10 or more and less than 20 is denoted as A)
CCC[C@H]1C(=O)N[C@@H](CC(C)C)C(=O)N(CCOC)CC(=O)N(C)[C@H]2C/C=C\CCN(C2=O)[C@@H](Cc2ccc(C)cc2)C(=O)N(C)CC(=O)N[C@@H](CCc2cc(F)c(C(F)(F)F)c(F)c2)C(=O)N2C[C@H](OCC)C[C@H]2C(=O)NC2(CCC2)C(=O)N(C)[C@@H](C2CCCC2)C(=O)N(C)[C@H](C(=O)N(C)C)CC(=O)N1C [PP2541] | B (a compound having 3 or more and less than 10 is denoted as B) | 4.9 nM | 374 nM | A (a compound having 10 or more and less than 20 is denoted as A)
CCC[C@H]1C(=O)N[C@@H](CC(C)C)C(=O)N(CCOC)CC(=O)N(C)[C@H]2C/C=C\CCN(C2=O)[C@@H](Cc2ccc(C)cc2)C(=O)N(C)CC(=O)N[C@@H](CCc2ccc(C(F)(F)F)c(OC)c2)C(=O)N2C[C@H](OCC)C[C@H]2C(=O)NC2(CCC2)C(=O)N(C)[C@@H](C2CCCC2)C(=O)N(C)[C@H](C(=O)N(C)C)CC(=O)N1C [PP2542] | B (a compound having 3 or more and less than 10 is denoted as B) | 4.6 nM | 394 nM | B (a compound having 3 or more and less than 10 is denoted as B)
CCC[C@H]1C(=O)N[C@@H](CC(C)C)C(=O)N(CC)CC(=O)N(C)[C@H]2C/C=C\CCN(C2=O)[C@@H](Cc2ccc(C)cc2)C(=O)N(C)CC(=O)N[C@@H](CCc2ccc(C(F)(F)F)c(Cl)c2)C(=O)N2C[C@H](OCC)C[C@H]2C(=O)NC2(CCC2)C(=O)N(C)[C@@H](C2CCCC2)C(=O)N(C)[C@H](C(=O)N(C)C)CC(=O)N1C [PP2545] | A (a compound having 10 or more and less than 20 is denoted as A) | 4.3 nM | 279 nM | A (a compound having 10 or more and less than 20 is denoted as A)
CCC[C@H]1C(=O)N[C@@H](CC(C)C)C(=O)N(CCOC)CC(=O)N(C)[C@H]2C/C=C\CCN(C2=O)[C@@H](Cc2ccc(C)cc2)C(=O)N(C)CC(=O)N[C@@H](CCc2ccc(C(F)(F)F)c(Cl)c2)C(=O)N2C[C@H](OCC)C[C@H]2C(=O)NC2(CCC2)C(=O)N(C)[C@@H](C2CCCC2)C(=O)N(C)[C@H](C(=O)N(C)C)CC(=O)N1C [PP2546] | B (a compound having 3 or more and less than 10 is denoted as B) | 4.7 nM | 295 nM | B (a compound having 3 or more and less than 10 is denoted as B)
CCC[C@H]1C(=O)N[C@@H](CC(C)C)C(=O)N2C[C@@H](OC)C[C@H]2C(=O)N(C)[C@H]2C/C=C\CCN(C2=O)[C@@H](Cc2ccc(C)cc2)C(=O)N(C)CC(=O)N[C@@H](CCc2ccc(C(F)(F)F)c(OC)c2)C(=O)N2C[C@H](OCC)C[C@H]2C(=O)NC2(CCC2)C(=O)N(C)[C@@H](C2CCCC2)C(=O)N(C)[C@H](C(=O)N(C)C)CC(=O)N1C [PP2548] | B (a compound having 3 or more and less than 10 is denoted as B) | 7.8 nM | 1050 nM | A (a compound having 10 or more and less than 20 is denoted as A)
CCC[C@H]1C(=O)N[C@H]([C@@H](C)CC)C(=O)N2C[C@@H](OC)C[C@H]2C(=O)N(C)[C@H]2C/C=C\CCN(C2=O)[C@@H](Cc2ccc(C)cc2)C(=O)N(C)CC(=O)N[C@@H](CCc2ccc(C(F)(F)F)c(Cl)c2)C(=O)N2C[C@H](OCC)C[C@H]2C(=O)NC2(CCC2)C(=O)N(C)[C@@H](C2CCCC2)C(=O)N(C)[C@H](C(=O)N(C)C)CC(=O)N1C [PP2552] | B (a compound having 3 or more and less than 10 is denoted as B) | 0.28 nM | 30.5 nM | A (a compound having 10 or more and less than 20 is denoted as A)
CCC[C@H]1C(=O)N[C@@H](CC(C)C)C(=O)N2C[C@@H](OC)C[C@H]2C(=O)N(C)[C@H]2C/C=C\CCN(C2=O)[C@@H](Cc2ccc(C)cc2)C(=O)N(C)CC(=O)N[C@@H](CCc2cc(F)c(C(F)(F)F)c(F)c2)C(=O)N2C[C@H](OCC)C[C@H]2C(=O)NC2(CC(C)(C)C2)C(=O)N(C)[C@@H](C2CCCC2)C(=O)N(C)[C@H](C(=O)N(C)C)CC(=O)N1C [PP2553] | B (a compound having 3 or more and less than 10 is denoted as B) | 3.4 nM | 121 nM | A (a compound having 10 or more and less than 20 is denoted as A)
CCC[C@H]1C(=O)N[C@@H](CC(C)C)C(=O)N2C[C@@H](OC)C[C@H]2C(=O)N(C)[C@H]2C/C=C\CCN(C2=O)[C@@H](Cc2ccc(C)cc2)C(=O)N(C)CC(=O)N[C@@H](CCc2ccc(C(F)(F)F)c(Cl)c2)C(=O)N2C[C@H](OCC)C[C@H]2C(=O)NC2(CC(C)(C)C2)C(=O)N(C)[C@@H](C2CCCC2)C(=O)N(C)[C@H](C(=O)N(C)C)CC(=O)N1C [PP2555] | B (a compound having 3 or more and less than 10 is denoted as B) | 4.1 nM | 212 nM | A (a compound having 10 or more and less than 20 is denoted as A)
CCC[C@H]1C(=O)N[C@@H]([C@@H](C)CC)C(=O)N2C[C@@H](OC)C[C@H]2C(=O)N(C)[C@H]2C/C=C\CCN(C2=O)[C@@H](Cc2ccc(C)cc2)C(=O)N(C)CC(=O)N[C@@H](CCc2cc(F)c(C(F)(F)F)c(F)c2)C(=O)N2C[C@H](OCC)C[C@H]2C(=O)NC2(CC(C)(C)C2)C(=O)N(C)[C@@H](C2CCCC2)C(=O)N(C)[C@H](C(=O)N(C)C)CC(=O)N1C [PP2556] | B (a compound having 3 or more and less than 10 is denoted as B) | 0.21 nM | 9.4 nM | A (a compound having 10 or more and less than 20 is denoted as A)
